The values below come from patent publication US20250312336A1, “Compositions And Methods For Treating Cancer With Calcium Channel Inhibitors” (Institute for Cancer Research d/b/a The Research Institute …, priority 2024, published 2025).

“Also recorded” adds a separate entry of the source.

One assay deals with Panc-1 cells. In words: Viability of Panc-1 cells under HDL receptor blockade. In kind it is cell-based, human. As to conditions: HDL receptor inhibitor, LDS. How it is done:
For direct enumeration of viable cells in co-cultures with CAFs, we seeded CAFs at 12,000 cells per well in 96-well plate (#3603, Corning) in DMEM/10% FBS. The next day, the media was replaced with 10%/LDS/DMEM and 4,000 DsRed-tagged Panc-1 cells were plated on the top of CAFs at 3:1 ratio. After 96 hours, fluorescence of viable DsRed-positive Panc-1 cells was measured using Spark Multimode Microplate Reader (Tecan) with parameters set at 540 nm for excitation and 590 nm for detection. To measure the dynamics of cell proliferation in vitro, we used xCELLigence E-Plate (ACEA BioSciences,) as per the manufacturer's recommended protocol. Impedance values were recorded every hour. Data was graphed using GraphPad Prism software.

For assay [1], the system named is PtdSer externalization in KPC tumors. In words: Phosphatidylserine imaging in autochthonous KPC pancreatic tumors. The format is in vivo, mouse. As to conditions: KPC mice.
In a further assay the test system is KPC3 pancreatic tumors. The assay is described as follows: Orthotopic syngeneic KPC3 pancreatic tumor growth. In kind it is in vivo, mouse. As to conditions: oral gavage 5 days/week for 3 weeks; niclosamide 150 mg/kg, clofazimine 50 mg/kg. The method, then: Syngeneic 5×10^5 KPC3 cells were injected into the tail of pancreas of anesthetized C57B1/6J mice. […] Mice were kept under defined-flora pathogen-free conditions at the AAALAC-approved Animal Facility of the Fox Chase Cancer Center, Philadelphia, PA. Mice of both genders, equally distributed, were used for the experiments.

In the next assay the test system is OT-1 CTLs. In words: Trogocytosis assay of DiD-labeled CAFs co-cultured with OT-1 CTLs. In kind it is cell-based, mouse. As to conditions: 12 h co-culture; niclosamide 1 μM, clofazimine 1 μM, anti-TIM3 Ab 4 μg/ml, 25-hydroxycholesterol 4 μM. How it is done: For trogocytosis between OT-1 and CAF cells, T cells were isolated from splenocytes of OTI mice (strain 021880, The Jackson Laboratory) and stimulated with OVA257-264 (1 μg/ml) for 24 hours as described.
Cholesterol abundance in cell membranes was determined with Cholesterol Detection Assay Kit (Cayman, cat #10009779). Dissociated cells were fixed with fixative solution for 10 minutes, washed and labeled with Filipin III as per the manufacturer's instructions. Labeling with Filipin III was done by incubating in the dark for 30 minutes. After two washes for 5 minutes each, labeling was analyzed by flow cytometry (excitation: 340-380, emission: 385-470). The IFN-γ, Granzyme B and Foxp3 were detected using Foxp3/Transcription Factor Staining Buffer (00-5523-00, Thermo Fisher Scientific). Cells were stained for cell surface markers at 4° C. for 30 min followed by fixation and permeabilization buffer for 30 mins and two washes with permeabilization buffer and incubation with the indicated antibodies for 30 mins, washed with PBS twice followed by flow cytometry analysis.

Assay [2] has as its system TMEM16F-dependent syncytia induced by SARS-COV-2. As to conditions: previous studies; cited from earlier work.
For assay [3], the target named is T1, ANO6 (Homo sapiens, UniProt Q4KMQ2).
T1 sequence (Q4KMQ2 1-910): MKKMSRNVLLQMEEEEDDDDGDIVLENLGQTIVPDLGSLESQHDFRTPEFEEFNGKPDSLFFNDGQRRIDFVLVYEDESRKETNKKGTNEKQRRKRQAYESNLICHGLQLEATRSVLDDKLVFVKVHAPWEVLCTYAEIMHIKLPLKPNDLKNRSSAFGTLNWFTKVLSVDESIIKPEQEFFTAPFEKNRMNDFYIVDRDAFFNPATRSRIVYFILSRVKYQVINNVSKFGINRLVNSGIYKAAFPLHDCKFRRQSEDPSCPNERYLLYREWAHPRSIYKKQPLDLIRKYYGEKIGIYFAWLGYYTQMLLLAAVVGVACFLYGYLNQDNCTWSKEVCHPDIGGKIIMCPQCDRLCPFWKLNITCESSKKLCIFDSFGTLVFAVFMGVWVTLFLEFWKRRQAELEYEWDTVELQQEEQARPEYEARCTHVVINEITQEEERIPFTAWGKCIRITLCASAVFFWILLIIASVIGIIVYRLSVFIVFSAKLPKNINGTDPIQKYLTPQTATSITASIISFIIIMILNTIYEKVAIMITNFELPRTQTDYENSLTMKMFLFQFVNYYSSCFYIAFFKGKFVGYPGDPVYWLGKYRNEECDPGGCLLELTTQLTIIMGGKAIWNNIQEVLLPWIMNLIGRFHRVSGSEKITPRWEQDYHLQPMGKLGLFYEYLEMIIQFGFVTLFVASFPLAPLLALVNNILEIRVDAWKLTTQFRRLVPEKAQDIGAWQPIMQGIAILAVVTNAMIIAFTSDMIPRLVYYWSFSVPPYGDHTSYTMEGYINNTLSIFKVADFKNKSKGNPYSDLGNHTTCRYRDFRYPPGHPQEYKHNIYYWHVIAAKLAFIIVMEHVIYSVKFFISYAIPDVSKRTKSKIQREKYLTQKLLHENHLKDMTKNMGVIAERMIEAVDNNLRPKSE
In words: PtdSer externalization (annexin XII) in CAFs co-cultured with DsRed-tagged Panc-1 cells. The format is cell-based. Also on record: this increase was observed only in control CAFs (ANO6-proficient) engaged in physical contacts with DsRed-tagged Panc-1 cells; endogenous in cells; host or cells: human CAFs in co-culture with DsRed-tagged Panc-1 cells. As to conditions: BTP2 10 μM; clofazimine 1 μM; niclosamide. The method, then:
(§1) CAFs were seeded in 24-well glass bottom plates (cat. #81156, Ibidi, Fitchburg, WI) at a density of 20,000 cells per well. Cells were then treated with niclosamide (1 μM) for 2 h. After one wash with FBS-free media at RT, cells were incubated with 250 μl of 1:100 annexin XII and 1:200 propidium iodide (pSIVA Abcam #ab129817), with or without 10 μM ionomycin. Cells were then incubated (5 min 37C) and imaged by fluorescence microscopy using a Nikon A1 camera (Nikon) linked to a Nikon Eclipse Ti2-E Inverted Microscope Imaging System (Nikon) for each channel. Fifteen images per well were acquired.

For assay [4], the system named is DsRed-tagged PDAC KPC3 tumors. In words: Intravital multiphoton imaging of BODIPY-cholesterol LDL uptake in DsRed-tagged KPC3 tumors. The format is in vivo, mouse.
Procedure: Mice with established orthotopic tumors roughly 21 days post implantation were anesthetized with 1.5-2% isoflurane/oxygen mixture maintained for the duration of imaging. Pancreatic tumors were exposed through a 1 cm incision on the left flank of the mouse placed on a 35° C. heating pad (Kent Scientific). Intensity thresholds were set up to distinguish signal from background fluorescence, and areas positive for DsRed, indicative of tumor cells, were selected for 3D confocal imaging using a 25× objective in the Leica SP8 Dive multiphoton imaging system (Leica Microsystems), prior to the intravenous administration of 150 μL of LDL carrying BODIPY-cholesterol and at 0.5, 1, 5, 16, and 19-hour interval post injection with XY resolution 0.867 um/px and Z distance 2 μm. For each time interval, 2-3 mice were imaged for 0.5-2 hours under continuous anesthesia. At the end of each imaging session, the animals were euthanized, and tissues were collected. The acquired 3D stacks were analyzed using Imaris 10.0.0 software (Oxford Instruments, UK). […] Mean intensity of cholesterol volume co-localized with tumor volume or volume outside of tumor was measured and ratio inside intensity/outside intensity was calculated. […] The volume of vesicles inside the tumor were expressed as a percentage relative to tumor volume.
A further assay concerns CAF1 fibroblasts. In words: Western blot of signaling epitopes in CAF1 fibroblast lysates. In kind it is cell-based, human. As to conditions: band densities relative to vehicle control. How it is done: Functional fibroblastic cell 3D culture units are needed to ensure the pathophysiological signal reciprocity between fibroblastic cells and self-generated ECM is sustained ex vivo. These units were generated using known methods. Briefly, confluent cultures of human pancreatic fibroblastic cells, harvested from surgical samples and immortalized via hTERT overexpression, were supplemented daily with freshly-prepared ascorbic acid (50 ug/mL) for a period lasting 5 days. The resulting fibroblastic/ECM 3D functional units were used for the phenotypic characterization of the units and to report on the pro-tumor vs. tumor-suppressive (normalized) statuses of the experimental fibroblastic/ECM units. For this, lysates obtained from the assorted units were resolved using SDS-PAGE and traits were gauged via western blot; testing for constitutive integrin and PI3K activities depicted by phosphorylated FAK and AKT respectively. Cultured cells were lysed in RIPA buffer (#24928, Santa Cruz) with phosphatase inhibitor (#1862495, Thermo Fisher Scientific) and protease inhibitors (#1861278, Thermo Fisher Scientific) on ice and cleared by centrifugation (15 min at 17,000 g). The protein concentration was measured with a Pierce BCA Protein Assay Kit (#23225, Thermo Fisher Scientific). […] The density of obtained bands was quantified with Image J software (FIJI).
(In general: In western blotting, separated proteins are transferred to a membrane and probed.)

For assay [5], the target named is T1, ANO6. In words: Phosphatidylserine externalization assay in CAFs pulsed with ionomycin (annexin XII). The format is cell-based. Set-up: endogenous in cells; host or cells: human patient-derived, hTERT-immortalized pancreatic cancer-associated fibroblasts (CAFs). As to conditions: niclosamide 1 μM 2 h; ionomycin 5 minutes at 10 μM; annexin XII staining. How it is done: as §1

The next assay relates to KPCN349 cells. In words: Trogocytosis of BODIPY-cholesterol labeled CAF membranes by KPCN349 cells with PtdSer masking. In kind it is cell-based, murine. As to conditions: 100 nM Annexin-V or 100 nM Zn-DPA; CAFs pre-treated 2 h, maintained in co-culture. How it is done: To label cellular membranes, pairs of lipophilic fluorescent dyes were used according to the manufacturer's instructions in the following combinations: 1) adherent CAFs were stained with 1 μM PKH67 (Sigma-Aldrich), Panc-1 were stained in suspension with 10 μM CellTracker™ orange CMCMR (Thermo Fisher Scientific); 2) CAFs labeled with 0.5 μM BODIPY-cholesterol (Topfluor Cholesterol, #DO-016545, Avanti Polar Lipids) dissolved in 0.1 mM methyl-beta-cyclodextrin (#C4555, Sigma) with 2 μM cholesterol (#C8667, Sigma-Aldrich) in MEM media at 37° C. for 30 min in suspension; murine or human (Panc-1) PDAC cells were stained in suspension with CPD670 (#65-0840-85, Thermo Fisher Scientific). After labeling, CAFs were co-incubated for the indicated time intervals with PDAC cells in 12-well culture plates at ratio of 2:1 in 0.5% DMEM media. Co-cultures of CAFs and PDAC cells for 3 minutes on ice minutes were used as negative controls. In experiments assessing the effect of extracellular calcium on trogocytosis, cells were co-cultured in Phosphate Buffered Saline (PBS) containing calcium and magnesium (D8662, Sigma-Aldrich) or in PBS without calcium and magnesium (D8537, Sigma-Aldrich). […] Trogocytosis was measured as the acquisition of CAF-specific fluorescence in PDAC cells by flow cytometry on MACSQuant® VYB Flow Cytometer (Miltenyi Biotec) or FACScan analyzer (BD Biosciences). […]

Regarding `CCCCCCC1CCCC1=NNC(N)=S` (stereo not drawn) [BTL1], the Panc-1 viability entry with Panc-1 cells is listed as “loss of Panc-1 viability”.
As for `CC(C)/N=c1\cc2n(-c3ccc(Cl)cc3)c3ccccc3nc-2cc1Nc1ccc(Cl)cc1` [clofazimine], the “PtdSer externalization in cytokeratin-positive cancer cells and podoplanin-positive CAFs (KL5c betabody)” value in assay [1] (two daily doses 50 mg/kg, 50 μg KL5c IV 5 hours prior to sacrifice) is given as “blocks PtdSer externalization”. In assay [1] (two daily doses 50 mg/kg, probe IV 24 hours prior to sacrifice), the “PtdSer externalization in KPC tumors (PSVue-794 infrared probe)” value was “blocks PtdSer externalization”. The “Detection of externalized PtdSer in PDAC using two chemically unrelated probes” value in [1] (two daily doses of clofazimine 50 mg/kg, KL5c betabody and PSVue-794) is “completely suppressed detection of externalized PtdSer”. Besides, the “Tumor weights of orthotopic syngeneic KPC3 pancreatic tumors” value in the assay on KPC3 pancreatic tumors is listed as “significantly reduced tumor weights”. Also, the “Transfer of DiD (CAF PM uptake) from CAFs to OT-1 CTLs” value (from here on “Transfer of DiD (CAF PM uptake)”) with OT-1 CTLs is given as “notably suppressed the measured transfer”. Besides, the “Formation of TMEM16F-dependent syncytia induced by SARS-COV-2” value in assay [2] is on record as “block formation”. Moreover, the “PtdSer externalization (annexin XII) in CAFs co-cultured with Panc-1 cells” value on ANO6 [3] is listed as “suppressed PtdSer externalization; also recorded: blocked”.
For the molecule `O=C(Nc1ccc([N+](=O)[O-])cc1Cl)c1cc(Cl)ccc1O` [niclosamide], in the assay on KPC3 pancreatic tumors, the “Tumor weights of orthotopic syngeneic KPC3 pancreatic tumors” value was “significantly reduced tumor weights”. The “Cholesterol accumulation in intratumoral vesicles containing BODIPY-cholesterol” value in assay [4] (19 hours post injection) was “significantly lower accumulation”. Also, in assay [4] (niclosamide-treated mice, after intravenous labeled LDL, 10, 16 and 19 hours), the “BODIPY-cholesterol accumulation in DsRed-tagged PDAC KPC3 cells” value is reported as “suppressed BODIPY-cholesterol accumulation”. In addition, the “Transfer of DiD (CAF PM uptake)” value in the assay with OT-1 CTLs was “notably suppressed the measured transfer”. Also, the “Signaling: expression of indicated protein epitopes in total cellular lysates of unmodified CAF1 fibroblasts” value in the assay on CAF1 fibroblasts is on record as “suppresses signaling”. In addition, the “Formation of TMEM16F-dependent syncytia induced by SARS-COV-2” value in assay [2] was “block formation”. Also, the “PtdSer externalization induced by ionomycin in CAFs pre-treated with inhibitor” value on ANO6 [5] was “did not cause externalized PtdSer; also recorded: prevents PtdSer externalization”. Besides, the “PtdSer externalization (annexin XII) in CAFs co-cultured with Panc-1 cells” value at ANO6 [3] is given as “absence of annexin XII labeling”.

B1: annexin V: PtdSer binding recombinant annexin V, label-free (protein, UniProt P08758 2-320, looked up)
Annexin A5: AQVLRGTVTDFPGFDERADAETLRKAMKGLGTDEESILTLLTSRSNAQRQEISAAFKTLFGRDLLDDLKSELTGKFEKLIVALMKPSRLYDAYELKHALKGAGTNEKVLTEIIASRTPEELRAIKQVYEEEYGSSLEDDVVGDTSGYYQRMLVVLLQANRDPDAGIDEAQVEQDAQALFQAGELKWGTDEEKFITIFGTRSVSHLRKVFDKYMTISGFQIEETIDRETSGNLEQLLLAVVKSIRSIPAYLAETLYYAMKGAGTDDHTLIRVMVSRSEIDLFNIRKEFRKNFATSLYSMIKGDTSGDYKKALLLLCGEDD
B1: in the assay with KPCN349 cells, the “Uptake of BODIPY-labeled CAF membranes by KPCN349 cells” value was “significantly reduced uptake; also recorded: antagonizes trogocytosis”. Moreover, in the assay on OT-1 CTLs, the “Transfer of DiD (CAF PM uptake)” value was “significantly reduced CAF PM uptake”.
